From a melting point compilation (Tetko et al.; mined from patent text by program, amines drawn as free bases though some values may be those of a salt)

Row | melting point | SMILES
1 | > 350 °C | O=c1cc[nH]c2nc(-c3ccncc3)ncc12
2 | 159 to 160 °C | c1ccc2c(c1)OCC(CCc1ncc[nH]1)O2 (centres undefined)
3 | 168 °C | CC(C)OC(=O)c1nc(Cl)c(Cl)[nH]1
4 | 113 to 115 °C | CC(C=O)c1ccc2cc(OCc3ccc4ccccc4n3)ccc2c1 (centres undefined)
5 | 96 to 98 °C | CC(C)(C)OC(=O)N1CCC(CN2C(=O)C3(COc4cc5c(cc43)CCO5)c3ccccc32)CC1 (centres undefined)
6 | 210 °C | C=CCn1cc(C(=O)O)c(=O)c2cc(F)c(N3CCOCC3)cc21
7 | 153 to 155 °C | CCCc1nc2c(N)nc3c(c2n1CCOCCS(C)(=O)=O)CCCC3
8 | 183 to 185 °C | N#Cc1cnn2c1N(C(=O)CCCl)CC=C2c1cccc(C(F)(F)F)c1
9 | 130 to 131 °C | OC1CCc2cnc3c(c21)CCO3 (centres undefined)
10 | 208 °C | CCCOc1ccccc1-c1nc2nc(NC3CC3)ncc2c(=O)[nH]1
11 | 312 to 315 °C | Cc1cc2c(=O)n3cc(C(=O)O)ccc3nc2s1
12 | 261 to 263 °C | Nc1nc2c(ncn2[C@@H]2CO[C@H](CO)C2)c(=O)[nH]1
13 | 37 to 39 °C | c1ccc(OCCCCCCN2CCN(c3nccs3)CC2)cc1
14 | 214 to 216 °C | COC(=O)c1cn(C2CC2)c2c(F)c(F)c(F)cc2c1=O
15 | 147 to 150 °C | CC(c1ccccc1)c1cc(C(=O)O)c(O)c(C(C)c2ccccc2)c1 (centres undefined)
16 | 190 to 192 °C | COc1cc(C(=O)c2ccnc3ccccc23)ccc1O
17 | 111 to 112 °C | NS(=O)(=O)N1CCC(F)(F)CC1
18 | 225 to 227 °C | O=C1CCC(N2Cc3c(OCc4ccc(CN5CCN(S(=O)(=O)c6ccc(F)c(F)c6)CC5)cc4)cccc3C2=O)C(=O)N1 (centres undefined)
19 | 191 to 194 °C | O=C1CCCc2c1ccc(O)c2O
20 | 214 to 215 °C | O=C(NCCO)c1cccc(-c2nc(=O)c3ccccc3s2)n1
21 | 258 to 260 °C | OCc1cc(O)cc2cc(-c3ccc(O)cc3)oc12
22 | 61 to 63 °C | CNC(=O)n1nc(Oc2ncc(C(F)(F)F)cc2Cl)cc1C(F)(F)F
23 | 132 to 133 °C | COC(=O)c1cc2cc(SCc3sc(-c4ccc(C(F)(F)F)cc4)nc3C)ccc2o1
24 | 150 °C | COc1ccc(C(=O)Nc2ccc3cccnc3n2)cc1
25 | 127 to 129 °C | CCN(c1nc(C)cc(C(C)Cn2cnnn2)n1)c1ccc(C(C)C)cc1Br (centres undefined)

Row | melting point | SMILES
26 | 62.5 to 65 °C | COC(=O)C(Sc1ccccc1)c1ccc(I)cc1 (centres undefined)
27 | 220 to 223 °C | CC(=O)NC(C(=O)O)C1c2ccccc2CCc2ccccc21 (centres undefined)
28 | 117 to 120 °C | Cc1cc(C)nc(N=S(C)C)n1
29 | 96 to 97.5 °C | CCN(CC)CCOc1cccc2c1c1cc(Cl)ccc1n2Cc1ccccc1
30 | 218 °C | O=c1[nH]c2ccccc2n1CCN1CCN(C(c2ccccc2)c2ccccc2)CC1
31 | 244 to 247 °C | O=c1c2scc(Br)c2ncn1O
32 | > 250 °C | CS(=O)(=O)c1cccnc1CC1C(=O)C2(COc3cc4c(cc32)OCCO4)c2ccccc21 (centres undefined)
33 | 250 °C | Cc1ccnc(Nc2nc(-c3c[nH]nc3C(O)c3ccccc3)cs2)n1 (centres undefined)
34 | 208 to 210 °C | Nc1ccc(S(=O)(=O)N2CCN(c3ccccn3)CC2)cc1
35 | 148 to 151 °C | O=C(NC1CCCc2c(O)cccc21)c1cccc(Cl)c1O (centres undefined)
36 | 117 to 119 °C | COc1ccc(COC(=O)CC(=O)Oc2ccc(-c3cn4c(n3)sc3ccccc34)cc2)cc1
37 | 168 to 172 °C | COc1ccc(OC)c(S(=O)(=O)NC(=O)C(C)Oc2cc(-n3nc(C)n(C(F)F)c3=O)c(F)cc2Cl)c1 (centres undefined)
38 | 157 to 159 °C | CC1Cc2cc(S(=O)(=O)n3cc(-c4ccccc4)[nH]c3=O)ccc2N1C(=O)CCl (centres undefined)
39 | 110 to 112 °C | C=CCOC(=O)c1ccccc1OS(=O)(=O)NC(=O)Nc1nc(OC)cc(OC)n1
40 | 87 to 90.5 °C | NCCOCC(O)c1ccc2sccc2c1 (centres undefined)
41 | 181 °C | Cc1c2sc3ccccc3nc-2c2ccccc2c1=O
42 | 310 to 312 °C | O=C(O)c1cccc2nc3n(c12)CCC3
43 | 158 to 161 °C | O=S(=O)(c1ccccc1)c1c(-c2ccc(Cl)cc2)[nH]c(C(F)(F)F)c1Cl
44 | 103 to 105 °C | CC(C)(C)C(=O)C(Oc1cccc(Cl)n1)n1cncn1 (centres undefined)
45 | 132 to 133 °C | C[C@H]1CN(Cc2ccccc2)C[C@H]1NC(=O)OC(C)(C)C (relative stereo)
46 | 143 to 145 °C | COc1nc2cc(Cl)c(Cl)c(CSC)c2nc1OC
47 | 138 °C | Cc1cccc(NC(=O)NCC(=O)N(c2ccccc2)C(C(=O)N2CCCC2)c2ccccc2)c1 (racemic)
48 | 51 to 53 °C | c1ccc(CN2CCC3(CC2)SCCS3)cc1
49 | 107 to 108 °C | C#CCOc1noc2c1CN(C(=O)OC(C)(C)C)CC2
50 | 173 °C | N#Cc1c(N2CCN(C(=O)c3cccs3)CC2)c2cc(F)cnc2n(Cc2ccccc2)c1=O

Row | melting point | SMILES
51 | 261 to 264 °C | CC(=O)Nc1ncc(-c2ccncc2)cn1
52 | 82.5 to 83 °C | CCOC(=O)c1cc(N)ccc1OC(C)=O
53 | 157 to 158 °C | O=C1NC(=O)C(S(=O)c2ccc3ccccc3c2)S1 (centres undefined)
54 | 127 °C | CCOC(=O)c1ccc(-c2ccc(F)cc2)cc1-c1ccc(OC)c(OC)c1
55 | 159 to 160 °C | CCSc1nc2c(C(=O)OC)sc(C)c2[nH]1
56 | 240 to 242 °C | O=C1Nc2ccccc2Oc2sc3ccccc3c21
57 | 339 to 341 °C | Cc1ccnc(NC(=O)c2nnc3ccccc3c2O)c1
58 | 123 to 125 °C | Clc1ccc(-c2nc(Br)cnc2Br)cc1
59 | 275 to 277 °C | Cc1ccc([N+](=O)[O-])cc1Nc1nccc(-c2cccnn2)n1
60 | 95 °C | COc1cccc(CO)c1CO
61 | 180 to 181 °C | O=C1NC(=O)C(Cc2ccc3c(c2)CN(c2ccccn2)CCO3)S1 (centres undefined)
62 | 196 to 198 °C | COc1ccc(C=C(NC(=O)c2ccccc2)C(=O)O)cc1OC
63 | 90 to 92 °C | O=C1CN(CCCBr)Oc2ccccc21
64 | 135 to 136 °C | COC(=O)c1cccc2nc(SCCCN3CCN(CC(=O)Nc4c(C(C)C)cccc4C(C)C)CC3)oc12
65 | 139 to 141 °C | Clc1ccc(-c2nc3ccccc3n2-c2ccccc2)cc1
66 | 188 °C | COc1cc2c(c3c1c(=O)c1cc4ccccc4cc1n3C)C=CC(C)(C)O2
67 | 115 °C | Cc1nc2c(OCc3c(Cl)ccc(S(=O)(=O)N4CCC[C@H]4C(=O)NCCCNC(=O)c4ccc(C=NN)cc4)c3Cl)cccn2c1Cl
68 | 103 to 105 °C | CC(C)(C)N(C=O)N=NNC=O
69 | 180 to 183 °C | O=C(O)c1nn(-c2c(Cl)cc(C(F)(F)F)cc2Cl)cc1OC(F)F
70 | 102 to 105 °C | Cc1ccc2cc(NC(=O)c3cccc(SCc4cnccn4)c3)ccc2n1
71 | 83 to 86 °C | OCC(CO)(OCc1ccccc1)c1ccccc1
72 | 191 to 193 °C | COc1ccc(C(=O)Nc2ccccc2)cc1NS(=O)(=O)c1ccc(Cl)c(Cl)c1
73 | 189 to 190 °C | Cn1c(Nc2c(Cl)cccc2Cl)nc2cc(C(=O)NC3CCC(C)(C)CC3)ccc21
74 | 211 to 215 °C | CC1(N2C(=O)c3ccccc3S2(=O)=O)CCCNC1=O (centres undefined)
75 | 165 to 166 °C | O=C(O)c1cccc(CSCCNC(=O)c2c(Cl)cccc2Cl)c1

Row | melting point | SMILES
76 | 232 to 235 °C | Cc1oc(C)c(C(=O)O)c1C(=O)O
77 | 126 to 127 °C | CSc1ccc(Cl)c(C(=O)NCC23CC4CC(CC(C4)C2)C3)c1
78 | 113 to 115 °C | O=C(Nc1ccncn1)C(CC1CCCC1)c1cccc(C(F)(F)F)c1 (centres undefined)
79 | 206 to 208 °C | O=C(O)CCN1C(=O)c2ccc([N+](=O)[O-])cc2C1=O
80 | 133 to 137 °C | CC(=O)Nc1ccc(C(=O)N(CCN2CCC(C(=O)c3ccc(F)cc3)CC2)c2ccc(O)cc2)cc1
81 | 93 to 95 °C | CN1C=NN(c2cccc(N)c2)N1
82 | 100 °C | Nc1ccc(Oc2ccc3sncc3c2)cc1
83 | 187 to 189 °C | COc1cccc(CNC(=O)c2nc3cccc(O)c3c(=O)[nH]2)c1
84 | 131 to 133 °C | Cc1nc2ccc(Oc3ncccc3C(=O)NCc3ccc(C(C)(C)O)cc3)cc2s1
85 | 164 °C | Cc1cccc(NC(=O)NC(CC(=O)N(CC(=O)OC(C)(C)C)c2ccccc2)c2ccccc2)c1 (racemic)
86 | 135 to 136 °C | O=C(c1c(Cl)cccc1Cl)n1cnc(-c2ccccc2)c1
87 | 183 to 184 °C | COc1cc(C)nc(NC(=O)NS(=O)(=O)c2c(C)nn(C)c2OC)n1
88 | 198 to 201 °C | NC(=S)Nc1cc(-c2ccccc2)nn1-c1ccccc1
89 | 114 to 115 °C | COC(=O)Cc1ccc(OCC2CN(c3ccc(C#N)cc3)C(=O)O2)cc1 (centres undefined)
90 | 162 to 163 °C | Cc1sc(-n2nc(C(=O)O)nc2CCl)c(C(=O)c2ccccc2)c1C
91 | 78 to 79 °C | Nc1ncc(Br)nc1OCC1CCCC1
92 | 169 to 171 °C | Cc1nccn1CC1CC2CCCn3c2c(c2ccccc23)C1=O (centres undefined)
93 | 240 °C | Cc1ccc(N2C(=O)c3nccnc3C2=O)nc1
94 | 171 to 172 °C | CCOC(=O)C1=C(N)NC(c2ccccc2)=CC1c1cccc([N+](=O)[O-])c1 (centres undefined)
95 | 118 to 120 °C | COc1ccc(CCNC(=O)C2CCC2)cc1
96 | 112 °C | C[C@H](N=Cc1ccc(OCc2cccc(F)c2)cc1)C(N)=O
97 | 123 to 125 °C | COc1cccc(CNc2nc(Cl)nc3c2nc(Br)n3C(C)C)c1
98 | 114 to 115 °C | Cc1nn(CCO)c(C)c1Oc1cc(Cl)cc(Cl)c1
99 | 203 to 205 °C | CC(=O)c1cc2cc(OCC(=O)O)c(Cl)c(Cl)c2s1
100 | 222 to 224 °C | CCc1cncc(-c2[nH]nc(C(=O)Cc3ccc4ccccc4c3)c2N)c1

Row | SMILES | melting point
101 | NC(=O)N1CCN(C(=O)Cc2ccc(Cl)c(Cl)c2)C(CN2CCCC2)C1 (centres undefined) | 206 to 209 °C
102 | CC(/C=C/c1ccsc1-c1ccc2c(c1)C(C)(C)CCC2(C)C)=C\C(=O)O | 195 to 197 °C
103 | CCCNC(=O)c1nc2n(n1)-c1ccc(Cl)cc1C(c1ccccc1Cl)=NC2 | 110 to 113 °C
104 | NC(=O)c1ncn2c1[C@@H]1CCCN1C(=O)c1cc(F)ccc1-2 | 239 to 240 °C
